{
  "source": "patent US10070660B2",
  "about": "“Pet food palatability with antimicrobial properties based on organic acids” (KEMIN INDUSTRIES, INC., priority 2012, dated 2018)",
  "key": {"[1]": {"system": "cats", "test": "Cat palatability, two-pan method (intake ratio)", "format": "in vivo", "conditions": "for IR-A: Ration B incumbent; for effect on palatability / taste (in words): summary statement, no trial details"}, "[2]": {"system": "Salmonella (five Salmonella enterica serovars)", "test": "Cat kibble challenge with dried five strain Salmonella cocktail inoculum", "format": "cell-based", "conditions": "for Salmonella counts on challenged cat kibble vs control palatant (in words): cat kibble challenge", "procedure": "(§1) One ml of each Salmonella culture was separately inoculated into a beaker containing tempered (ambient), sterilized MBM which was then incubated at 37° C. for 48 hours. Inoculated MBM was dispensed (approx. 200 g) into sterile 250 ml centrifuge bottles and centrifuged at 5,000 rpm for 10 minutes. The supernatant was decanted and autoclaved for disposal. The pellets were suspended in 10 ml TSB-20% glycerol. Suspensions (approximately 150-160 g) were transferred to sterilized 250 ml polycarbonate straight side wide mouth jars with lids (Nalgene, Thermo Scientific). Jars containing MBM-Salmonella suspensions were immediately frozen at −70° C. for 1 hour. Frozen MBM-Salmonella suspensions were lyophilized using a FreeZone-1 Liter benchtop freeze dry system (Labconco) (approx. 96 hours, −50° C.). Each lyophilized Salmonella culture was pulverized to a fine powder using a sterile mortar and pestle. Twenty g of each of the five lyophilized Salmonella cultures was combined in a sterile wide mouth glass jar to make the dried Salmonella cocktail inoculum. […] Solidified plates were incubated inverted at 37° C. for 16-18 hours. Visible colonies were counted and colony forming units per gram were calculated (CFU/g). […] Kibble and inoculum were mixed together for five minutes by hand in a plastic zip top bag, and allowed to rest for 1 hour prior to sampling. Coated, un-inoculated kibble was also included in the study and tested for Salmonella (direct plating and FDA BAM), total aerobic bacteria, mold and yeast counts, pH, percent moisture, and water activity. For each analysis time point challenged kibble was sampled in triplicate. Kibbles were stored at ambient temperature.\n(§2) Challenged kibble samples bags were mixed thoroughly, then 5.00 g (±0.01) was aseptically weighed into a sterile plastic bag and diluted with 45 ml sterile Phosphate Buffer (Butterfield) diluent (BPB) containing (g/l) KH2PO4 34.0, pH adjusted to 7.2 with 1N sodium hydroxide and homogenized using a Stomacher (Seward Stomacher 80) for 1 minute and serially diluted in BPB for plating. The plates are poured with tempered (45° C.) XLD agar. After solidification, plates were inverted and placed in an incubator (37° C.). Colonies were counted and CFU/g was calculated. The counts for each triplicate sample were averaged and expressed as log CFU/g. Those samples of which were below the detection limit of <10 CFU/g were assigned 0 log CFU/g for the purpose of statistical analysis. Analysis of Variance using the LSD separation of means method was performed to analyze the data using StatGraphics software (StatPoint Technologies, Inc. Warrenton, Va.).\nAll procedures for the Phase 3 kibble challenge were conducted as described for Phase 2."}, "[3]": {"system": "Salmonella (five Salmonella enterica serovars)", "test": "Dog kibble challenge with dried five strain Salmonella cocktail inoculum", "format": "cell-based", "conditions": "dog kibble challenge", "procedure": "as §1, §2\nDry dog palatants were formulated with fumaric acid or SBS to deliver 0.5% acid to the surface of the kibble. The effect of each acid on Salmonella challenged on the surface of dog kibble was examined. Dog kibbles were challenged with dried five strain Salmonella cocktail inoculum.\nThe effect of each acid on Salmonella challenged on the surface of dog kibble was examined. Dog kibbles were challenged with dried five strain Salmonella cocktail inoculum prep."}, "[4]": {"conditions": "Example 4 cat trials, formula 89-87 or 89-145 vs incumbent dry palatant"}, "[5]": {"conditions": "Second set, Formula 89-87, 0.5% total acid on kibble"}, "[6]": {"conditions": "Table 14, single acid 0.5% on cat kibble, day 0"}, "[7]": {"conditions": "Table 14, single acid 0.5% on cat kibble, day 1"}, "[8]": {"conditions": "Table 14, single acid 0.5% on cat kibble, day 3"}, "[9]": {"conditions": "Table 14, single acid 0.5% on cat kibble, day 7"}, "[10]": {"conditions": "Table 14, single acid 0.5% on cat kibble, day 14"}, "[11]": {"conditions": "Table 14, single acid 0.5% on cat kibble, day 23"}, "[12]": {"conditions": "Second set, Formula 89-87, 0.25% acid on kibble"}, "[13]": {"conditions": "First set, Prototype 89-87 at 2.5%, 0.25% acid on kibble"}, "[14]": {"conditions": "First set, Prototype 89-87 at 2.5%, 0.5% total acid on kibble"}},
  "data": [
    {"smiles": "O=C(O)CC(O)(CC(=O)O)C(=O)O", "note": "[CA, citric acid]", "values": [
      {"measurement": "palatability (in words)", "setting": "[1]; [4]", "result": "adequate palatability"},
      {"measurement": "IR-A", "setting": "[1]; [5]", "result": "0.46% (N.S.)"},
      {"measurement": "Salmonella", "setting": "[2]; [6]", "result": "2.05 ± 0.05^Ba log CFU/g"},
      {"measurement": "Salmonella", "setting": "[2]; [7]", "result": "1.54 ± 0.16^BCDab log CFU/g"},
      {"measurement": "Salmonella", "setting": "[2]; [8]", "result": "1.46 ± 0.09^ABb log CFU/g"},
      {"measurement": "Salmonella", "setting": "[2]; [9]", "result": "0.77 ± 0.39^ABc log CFU/g"},
      {"measurement": "Salmonella", "setting": "[2]; [10]", "result": "0.00 ± 0.00^Bd log CFU/g"},
      {"measurement": "Salmonella", "setting": "[2]; [11]", "result": "0.00 ± 0.00^Bd log CFU/g"},
      {"measurement": "Salmonella counts on challenged cat kibble vs control palatant (in words)", "setting": "[2]", "result": "effective at significantly reducing Salmonella"}
    ]},
    {"smiles": "O=C(O)c1cc(O)c(O)c(O)c1", "note": "[GA, gallic acid]", "values": [
      {"measurement": "palatability (in words)", "setting": "[1]; [4]", "result": "very good palatability"},
      {"measurement": "IR-A", "setting": "[1]; [12]", "result": "0.55 (N.S.)"},
      {"measurement": "IR-A", "setting": "[1]; [5]", "result": "0.70 (p ≤ 0.001)"}
    ]},
    {"smiles": "O=C(O)CC(O)C(=O)O", "note": "(stereo not drawn) [Malic acid, reference compound]", "values": [
      {"measurement": "effect on palatability / taste (in words)", "setting": "[1]", "result": "adverse effects on palatability"}
    ]},
    {"smiles": "C/C=C/C=C/C(=O)O", "note": "[Sorbic Acid, sorbic acid]", "values": [
      {"measurement": "IR-A", "setting": "[1]; Confirmation trials, Prototype 89-87, 0.5% total acid on kibble", "result": 0.59, "unit": "p ≤ 0.001)"},
      {"measurement": "palatability (in words)", "setting": "[1]; Example 4 cat trials, formula 89-87 or 89-145 vs incumbent dry palatant, listed as Sorbic acid", "result": "scored significantly higher than the incumbent flavor"},
      {"measurement": "palatability (in words)", "setting": "[1]; Example 4 cat trials, formula 89-87 or 89-145 vs incumbent dry palatant, listed as sorbic acid", "result": "remained high"},
      {"measurement": "IR-A", "setting": "[1]; [13]", "result": "0.74 (p ≤ 0.001)"},
      {"measurement": "IR-A", "setting": "[1]; [14]", "result": "0.70 (p ≤ 0.001)"},
      {"measurement": "Salmonella", "setting": "[2]; Table 12, 0.50% total acid on cat kibble, day 0", "result": "3.50 ± 0.06^Ba log CFU/g"},
      {"measurement": "Salmonella", "setting": "[2]; Table 12, 0.50% total acid on cat kibble, day 1", "result": "2.10 ± 0.08^Bb log CFU/g"},
      {"measurement": "Salmonella", "setting": "[2]; Table 12, 0.50% total acid on cat kibble, day 5", "result": "0.77 ± 0.39^Bc log CFU/g"},
      {"measurement": "Salmonella", "setting": "[2]; Table 12, 0.50% total acid on cat kibble, day 7", "result": "0.49 ± 0.49^Bc log CFU/g"},
      {"measurement": "Salmonella", "setting": "[2]; Table 12, 0.50% total acid on cat kibble, day 14", "result": "0.67 ± 0.33^Bc log CFU/g"},
      {"measurement": "Salmonella", "setting": "[2]; Table 12, 0.50% total acid on cat kibble, day 21", "result": "0.00 ± 0.00^Bc log CFU/g"},
      {"measurement": "Salmonella counts on challenged cat kibble vs control palatant (in words)", "setting": "[2]; listed as sorbic", "result": "effective at significantly reducing Salmonella"},
      {"measurement": "Salmonella counts on challenged cat kibble vs control palatant (in words)", "setting": "[2]; listed as sorbic acid", "result": "significantly lower"},
      {"measurement": "Salmonella counts on challenged dog kibble vs control palatant (in words)", "setting": "[3]", "result": "effective at significantly reducing Salmonella"}
    ]},
    {"smiles": "O=C(O)CCC(=O)O", "note": "[Suc, succinic acid]", "values": [
      {"measurement": "palatability (in words)", "setting": "[1]; [4]", "result": "palatable alternate to fumaric acid"},
      {"measurement": "IR-A", "setting": "[1]; [13]", "result": "0.56 (N.S.)"},
      {"measurement": "IR-A", "setting": "[1]; [14]", "result": "0.54 (N.S.)"},
      {"measurement": "Salmonella counts on challenged cat kibble vs control palatant (in words)", "setting": "[2]", "result": "effective at significantly reducing Salmonella"},
      {"measurement": "Salmonella counts on challenged dog kibble vs control palatant (in words)", "setting": "[3]", "result": "effective at significantly reducing Salmonella"}
    ]},
    {"smiles": "O=C(OC[C@H]1O[C@@H](OC(=O)c2cc(O)c(O)c(OC(=O)c3cc(O)c(O)c(O)c3)c2)[C@H](OC(=O)c2cc(O)c(O)c(OC(=O)c3cc(O)c(O)c(O)c3)c2)[C@@H](OC(=O)c2cc(O)c(O)c(OC(=O)c3cc(O)c(O)c(O)c3)c2)[C@@H]1OC(=O)c1cc(O)c(O)c(OC(=O)c2cc(O)c(O)c(O)c2)c1)c1cc(O)c(O)c(OC(=O)c2cc(O)c(O)c(O)c2)c1", "note": "[TA, tannic acid]", "values": [
      {"measurement": "palatability (in words)", "setting": "[1]; [4]", "result": "acceptable palatability"},
      {"measurement": "IR-A", "setting": "[1]; [12]", "result": "0.55 (N.S)"},
      {"measurement": "Salmonella", "setting": "[2]; [6]", "result": "3.19 ± 0.17^Aa log CFU/g"},
      {"measurement": "Salmonella", "setting": "[2]; [7]", "result": "2.51 ± 0.26^Ab log CFU/g"},
      {"measurement": "Salmonella", "setting": "[2]; [8]", "result": "2.05 ± 0.18^Ab log CFU/g"},
      {"measurement": "Salmonella", "setting": "[2]; [9]", "result": "1.50 ± 0.10^Ac log CFU/g"},
      {"measurement": "Salmonella", "setting": "[2]; [10]", "result": "1.46 ± 0.16^Ac log CFU/g"},
      {"measurement": "Salmonella", "setting": "[2]; [11]", "result": "0.00 ± 0.00^Bd log CFU/g"},
      {"measurement": "Salmonella counts on challenged cat kibble vs control palatant (in words)", "setting": "[2]", "result": "effective at significantly reducing Salmonella"}
    ]},
    {"smiles": "O=C(O)/C=C\\C(=O)O", "note": "[maleic acid, reference compound]", "values": [
      {"measurement": "effect on palatability / taste (in words)", "setting": "[1]", "result": "repulsive, astringent taste"}
    ]},
    {"smiles": "O=C(O)C(O)C(O)C(=O)O", "note": "(stereo not drawn) [tartaric acid, reference compound]", "values": [
      {"measurement": "palatability (in words)", "setting": "[1]; Example 1 cat trials, dry palatant 1.5% on kibble, vs benchmark", "result": "significant declines in palatability"},
      {"measurement": "IR", "setting": "[1]; Trial 412, 33% tartaric acid in formula, palatant 1.5% on kibble, vs name brand cat food", "result": 0.24},
      {"measurement": "effect on palatability / taste (in words)", "setting": "[1]", "result": "adverse effects on palatability"}
    ]}
  ]
}
